Assay results from PubChem BioAssay (NCI).
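Tested at 5 concentrations; 48 h exposure; 96-well plates; endpoints linearly interpolated, else capped at highest concentration. GI50: concentration for 50% inhibition of growth. TGI marks complete inhibition of growth.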

Columns and labels:
Assay in all cases: growth of human tumour cells (NCI), 48 h
SK-MEL-2 melanoma = test system: SK-MEL-2 melanoma
OVCAR-5 ovarian = test system: OVCAR-5 ovarian
KM12 colon = test system: KM12 colon
MCF7 breast = test system: MCF7 breast
UO-31 renal = test system: UO-31 renal
SK-OV-3 ovarian = test system: SK-OV-3 ovarian
SK-MEL-28 melanoma = test system: SK-MEL-28 melanoma
HOP-62 NSCLC = test system: HOP-62 NSCLC
SK-MEL-5 melanoma = test system: SK-MEL-5 melanoma
HS 578T breast = test system: HS 578T breast
MDA-MB-435 = test system: MDA-MB-435
BT-549 breast = test system: BT-549 breast
A498 renal = test system: A498 renal
PC-3 prostate = test system: PC-3 prostate
K-562 leukemia = test system: K-562 leukemia
MOLT-4 leukemia = test system: MOLT-4 leukemia
MALME-3M melanoma = test system: MALME-3M melanoma
LOX IMVI melanoma = test system: LOX IMVI melanoma
NCI/ADR-RES ovarian = test system: NCI/ADR-RES ovarian
DU-145 prostate = test system: DU-145 prostate
HCC-2998 colon = test system: HCC-2998 colon
TK-10 renal = test system: TK-10 renal
NCI-H460 lung = test system: NCI-H460 lung
UACC-62 melanoma = test system: UACC-62 melanoma
SF-295 CNS = test system: SF-295 CNS
SNB-75 CNS = test system: SNB-75 CNS
SNB-19 CNS = test system: SNB-19 CNS
IGROV1 ovarian = test system: IGROV1 ovarian
NCI-H226 lung = test system: NCI-H226 lung
CAKI-1 renal = test system: CAKI-1 renal
UACC-257 melanoma = test system: UACC-257 melanoma
HCT-15 colon = test system: HCT-15 colon
HOP-92 NSCLC = test system: HOP-92 NSCLC
ACHN renal = test system: ACHN renal
OVCAR-4 ovarian = test system: OVCAR-4 ovarian
SW-620 colon = test system: SW-620 colon
NCI-H23 lung = test system: NCI-H23 lung
RXF 393 renal = test system: RXF 393 renal
SF-539 CNS = test system: SF-539 CNS
OVCAR-3 ovarian = test system: OVCAR-3 ovarian
T-47D breast = test system: T-47D breast
MDA-MB-231 breast = test system: MDA-MB-231 breast
SN12C renal = test system: SN12C renal
COLO 205 colon = test system: COLO 205 colon
EKVX NSCLC = test system: EKVX NSCLC
SF-268 CNS = test system: SF-268 CNS

CCN(CC)CCNC(=O)c1cn2ncnc(Oc3ccc(NC(=O)Nc4ccc(Cl)c(C(F)(F)F)c4)cc3)c2c1C was tested, and the GI50 (SK-MEL-2 melanoma) was 1.97 µM, the TGI (SK-MEL-2 melanoma) was 4.15 µM and the GI50 (OVCAR-5 ovarian) was 1.99 µM. For the same molecule, the TGI (OVCAR-5 ovarian) was 3.48 µM, the GI50 (KM12 colon) was 1.69 µM and the TGI (KM12 colon) was 3.25 µM. It also gave a GI50 (MCF7 breast) of 1.22 µM, a TGI (MCF7 breast) of 2.77 µM and a GI50 (UO-31 renal) of 1.72 µM. It also gave a TGI (UO-31 renal) of 3.15 µM, a GI50 (SK-OV-3 ovarian) of 1.85 µM and a TGI (SK-OV-3 ovarian) of 3.46 µM. It also gave a GI50 (SK-MEL-28 melanoma) of 1.48 µM, a TGI (SK-MEL-28 melanoma) of 2.8 µM and a GI50 (HOP-62 NSCLC) of 1.76 µM. For the same molecule, the TGI (HOP-62 NSCLC) was 3.56 µM, the GI50 (SK-MEL-5 melanoma) was 1.76 µM and the TGI (SK-MEL-5 melanoma) was 3.22 µM. For the same molecule, the GI50 (HS 578T breast) was 1.49 µM, the TGI (HS 578T breast) was 3.92 µM and the GI50 (MDA-MB-435) was 1.63 µM. The TGI (MDA-MB-435) was 3 µM, the GI50 (BT-549 breast) was 1.61 µM and the TGI (BT-549 breast) was 3.09 µM. It also gave a GI50 (A498 renal) of 1.39 µM, a TGI (A498 renal) of 2.74 µM and a GI50 (PC-3 prostate) of 1.31 µM. For the same molecule, the TGI (PC-3 prostate) was 2.8 µM, the GI50 (K-562 leukemia) was 0.383 µM and the TGI (K-562 leukemia) was 1.65 µM. It also gave a GI50 (MOLT-4 leukemia) of 0.738 µM, a TGI (MOLT-4 leukemia) of 2.4 µM and a GI50 (MALME-3M melanoma) of 1.29 µM. It also gave a TGI (MALME-3M melanoma) of 2.84 µM, a GI50 (LOX IMVI melanoma) of 1.36 µM and a TGI (LOX IMVI melanoma) of 2.82 µM. The GI50 (NCI/ADR-RES ovarian) was 1.98 µM, the TGI (NCI/ADR-RES ovarian) was 3.82 µM and the GI50 (DU-145 prostate) was 1.69 µM. The TGI (DU-145 prostate) was 3.1 µM, the GI50 (HCC-2998 colon) was 2.24 µM and the TGI (HCC-2998 colon) was 3.92 µM. For the same molecule, the GI50 (TK-10 renal) was 2.11 µM, the TGI (TK-10 renal) was 3.92 µM and the GI50 (NCI-H460 lung) was 1.72 µM. For the same molecule, the TGI (NCI-H460 lung) was 3.32 µM, the GI50 (UACC-62 melanoma) was 1.81 µM and the TGI (UACC-62 melanoma) was 3.43 µM. For the same molecule, the GI50 (SF-295 CNS) was 1.8 µM, the TGI (SF-295 CNS) was 3.33 µM and the GI50 (SNB-75 CNS) was 0.0645 µM. The TGI (SNB-75 CNS) was 1.52 µM, the GI50 (SNB-19 CNS) was 1.86 µM and the TGI (SNB-19 CNS) was 3.27 µM. For the same molecule, the GI50 (IGROV1 ovarian) was 1.69 µM, the TGI (IGROV1 ovarian) was 3.24 µM and the GI50 (NCI-H226 lung) was 1.76 µM. The TGI (NCI-H226 lung) was 3.89 µM, the GI50 (CAKI-1 renal) was 1.67 µM and the TGI (CAKI-1 renal) was 3.07 µM. The GI50 (UACC-257 melanoma) was 1.63 µM, the TGI (UACC-257 melanoma) was 3.42 µM and the GI50 (HCT-15 colon) was 1.62 µM. For the same molecule, the TGI (HCT-15 colon) was 3.1 µM, the GI50 (HOP-92 NSCLC) was 1.19 µM and the TGI (HOP-92 NSCLC) was 2.69 µM. For the same molecule, the GI50 (ACHN renal) was 1.73 µM, the TGI (ACHN renal) was 3.1 µM and the GI50 (OVCAR-4 ovarian) was 1.79 µM. The TGI (OVCAR-4 ovarian) was 3.42 µM, the GI50 (SW-620 colon) was 2.23 µM and the TGI (SW-620 colon) was 3.96 µM. It also gave a GI50 (NCI-H23 lung) of 1.8 µM, a TGI (NCI-H23 lung) of 3.49 µM and a GI50 (RXF 393 renal) of 1.49 µM. The TGI (RXF 393 renal) was 3.02 µM, the GI50 (SF-539 CNS) was 1.1 µM and the TGI (SF-539 CNS) was 2.32 µM. For the same molecule, the GI50 (OVCAR-3 ovarian) was 1.93 µM, the TGI (OVCAR-3 ovarian) was 3.51 µM and the GI50 (T-47D breast) was 1.8 µM. For the same molecule, the TGI (T-47D breast) was 4.42 µM, the GI50 (MDA-MB-231 breast) was 1.87 µM and the TGI (MDA-MB-231 breast) was 3.52 µM. It also gave a GI50 (SN12C renal) of 1.6 µM, a TGI (SN12C renal) of 3.14 µM and a GI50 (COLO 205 colon) of 1.78 µM. For the same molecule, the TGI (COLO 205 colon) was 3.56 µM, the GI50 (EKVX NSCLC) was 1.69 µM and the TGI (EKVX NSCLC) was 3.12 µM. It also gave a GI50 (SF-268 CNS) of 1.59 µM and a TGI (SF-268 CNS) of 3.14 µM.
